Measurements from patent US8071768B2, “Alkylquinoline and alkylquinazoline kinase modulators” (Janssen Pharmaceutica, N.V., priority 2005, dated 2011).
pIC50: −log10 of the molar value. Where a name gives a salt, the structure may show the parent alone.

Experiments:
[1] = target: T1, isolated kinase domain of the human c-kit receptor (Homo sapiens, UniProt P10721); test: c-Kit Fluorescence Polarization Kinase Assay; type: biochemical; settings: uncertainty ±10%; read-out: ckit IC50
T1 construct: isolated kinase domain of the human c-kit receptor; purchased ProQinase lot SP005
T1 sequence (P10721 589-937 limits assumed): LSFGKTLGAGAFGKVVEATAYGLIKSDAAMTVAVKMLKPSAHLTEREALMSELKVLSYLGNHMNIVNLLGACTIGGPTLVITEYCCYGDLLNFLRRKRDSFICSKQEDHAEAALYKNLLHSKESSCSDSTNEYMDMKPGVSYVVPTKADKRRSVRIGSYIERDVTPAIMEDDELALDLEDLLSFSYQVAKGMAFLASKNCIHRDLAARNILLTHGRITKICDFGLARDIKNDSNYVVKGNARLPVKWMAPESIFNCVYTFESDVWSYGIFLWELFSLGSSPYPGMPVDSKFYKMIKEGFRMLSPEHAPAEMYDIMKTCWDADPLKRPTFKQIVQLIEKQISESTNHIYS
Description: c-Kit Fluorescence Polarization Kinase Assay
The compounds of the present invention are also specific inhibitors of c-Kit. Selection of preferred compounds of Formula I for use as c-Kit inhibitors was performed in the following manner using an in vitro kinase assay to measure inhibition of the isolated kinase domain of the human c-kit receptor in a fluorescence polarization (FP) protocol. The c-kit assay utilized the fluorescein-labeled phosphopeptide and the anti-phosphotyrosine antibody included in the Panvera Phospho-Tyrosine Kinase Kit (Green) supplied by Invitrogen. When c-kit phosphorylated the poly Glu4Tyr, the fluorescein-labeled phosphopeptide was displaced from the anti-phosphotyrosine antibody by the phosphorylated poly Glu4Tyr, thus decreasing the FP value. The c-kit kinase reaction was incubated at room temperature for 45 minutes under the following conditions: 1 nM c-kit (ProQinase, lot SP005), 100 ug/mL poly Glu4Tyr, 50 uM ATP, 5 mM MgCl2, 1 mM DTT, 0.01% Tween-20, 1% DMSO or compound in […], pH 7.5. The kinase reaction was stopped with the addition of EDTA. The fluorescein-labeled phosphopeptide and the anti-phosphotyrosine antibody were added and incubated for 30 minutes at room temperature and fluorescence polarization was read. Data points were an average of triplicate samples. Inhibition and IC50 data analysis were done with GraphPad Prism using a non-linear regression fit with a multiparamater, sigmoidal dose-response (variable slope) equation.

TrkB = target: T2, TrkB (Homo sapiens, UniProt Q16620); test: Trk B Fluorescence Polarization Kinase Assay; type: biochemical; settings: uncertainty ±10%
T2 construct: purchased Upstate 14-507M
T2 sequence (Q16620 32-822): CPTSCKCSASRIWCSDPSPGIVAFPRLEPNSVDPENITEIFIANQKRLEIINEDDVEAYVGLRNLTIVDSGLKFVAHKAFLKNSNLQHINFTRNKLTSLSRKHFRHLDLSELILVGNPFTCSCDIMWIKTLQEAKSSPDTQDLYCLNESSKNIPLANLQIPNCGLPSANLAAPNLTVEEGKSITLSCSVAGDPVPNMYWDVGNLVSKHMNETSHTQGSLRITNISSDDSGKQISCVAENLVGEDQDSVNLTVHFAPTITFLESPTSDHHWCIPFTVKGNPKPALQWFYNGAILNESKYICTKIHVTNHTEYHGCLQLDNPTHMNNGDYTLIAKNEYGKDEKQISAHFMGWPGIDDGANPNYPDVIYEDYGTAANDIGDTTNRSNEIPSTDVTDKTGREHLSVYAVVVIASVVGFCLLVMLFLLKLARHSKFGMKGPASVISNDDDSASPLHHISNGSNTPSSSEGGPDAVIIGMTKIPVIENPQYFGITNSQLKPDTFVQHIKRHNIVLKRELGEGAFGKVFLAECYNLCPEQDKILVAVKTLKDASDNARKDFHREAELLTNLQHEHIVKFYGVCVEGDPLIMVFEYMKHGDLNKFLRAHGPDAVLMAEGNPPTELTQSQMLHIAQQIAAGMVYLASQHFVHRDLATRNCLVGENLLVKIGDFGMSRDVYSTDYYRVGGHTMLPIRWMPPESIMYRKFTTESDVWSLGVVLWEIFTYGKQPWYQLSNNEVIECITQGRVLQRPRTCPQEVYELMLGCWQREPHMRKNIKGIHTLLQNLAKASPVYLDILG
Summary of the method: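 The TrkB kinase reaction (50 nM enzyme, 20 ug/mL poly Glu4Tyr, 150 uM ATP, 5 mM MgCl2, 1% DMSO) ran 30 minutes at room temperature and was stopped with EDTA. Phosphorylation was detected by fluorescence-polarization displacement of a fluorescein phosphopeptide from an anti-phosphotyrosine antibody. IC50 came from a variable-slope sigmoidal fit of triplicates.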

| Structure (SMILES) | pIC50 [1] | pIC50 (TrkB) |
| --- | --- | --- |
| CC(C)Oc1ccc(NC(=O)N2CCC(c3ncnc4ccc(OCCCN5CCN(C)CC5)cc34)CC2)cc1 [Compound 76, 4-{6-[3-(4-Methyl-piperazin-1-yl)-propoxy]-quinazolin-4-yl}-piperidine-1-carboxylic acid (4-isopropoxy-phenyl)-amide] | 6.55 | 5.10 |
| COc1cc2ncnc(C3CCN(C(=O)Nc4ccc(C(C)C)cc4)CC3)c2cc1OC [Compound 4, 4-(6,7-Dimethoxy-quinazolin-4-yl)-piperidine-1-carboxylic acid (4-isopropyl-phenyl)-amide] | 6.21 |  |
| CN1CCN(CCCOc2ccc3c(C4CCN(C(=O)Nc5ccc(N6CCOCC6)nc5)CC4)ncnc3c2)CC1 [Compound 80, 4-{7-[3-(4-Methyl-piperazin-1-yl)-propoxy]-quinazolin-4-yl}-piperidine-1-carboxylic acid (6-morpholin-4-yl-pyridin-3-yl)-amide] | 6.80 | 5.04 |
| COc1cc2ncnc(C3CCN(C(=O)Nc4ccc(N5CCOCC5)cc4)CC3)c2cc1OC [Compound 18, 4-(6,7-Dimethoxy-quinazolin-4-yl)-piperidine-1-carboxylic acid (4-morpholin-4-yl-phenyl)-amide] | 6.80 | 4.72 |
| COCCOc1ccc(NC(=O)N2CCC(c3ncnc4cc(OC)c(OC)cc34)CC2)cc1 [Compound 40, 4-(6,7-Dimethoxy-quinazolin-4-yl)-piperidine-1-carboxylic acid [4-(2-methoxy-ethoxy)-phenyl]-amide] |  | < 4.38 |
| COc1cc2ncnc(C3CCN(C(=O)Nc4ccc(OC5CCC5)nc4)CC3)c2cc1OC [Compound 17, 4-(6,7-Dimethoxy-quinazolin-4-yl)-piperidine-1-carboxylic acid (6-cyclobutoxy-pyridin-3-yl)-amide] | 7.11 | 6.30 |
| O=C(Nc1ccc(N2CCOCC2)cc1)N1CCC(c2ncnc3cc(N4CC[C@@H](O)C4)ccc23)CC1 [Compound 126, (R)-4-[7-(3-Hydroxy-pyrrolidin-1-yl)-quinazolin-4-yl]-piperidine-1-carboxylic acid (4-morpholin-4-yl-phenyl)-amide] |  | 4.99 |
| COCCCOc1ccc2c(C3CCN(C(=O)Nc4ccc(N5CCOCC5)cc4)CC3)ncnc2c1 [Compound 78, 4-[7-(3-Methoxy-propoxy)-quinazolin-4-yl]-piperidine-1-carboxylic acid (4-morpholin-4-yl-phenyl)-amide] |  | 4.74 |
| CN1CCCN(c2ccc3c(C4CCN(C(=O)Nc5ccc(N6CCOCC6)cc5)CC4)ncnc3c2)CC1 [Compound 138, 4-[7-(4-Methyl-[1,4]diazepan-1-yl)-quinazolin-4-yl]-piperidine-1-carboxylic acid (4-morpholin-4-yl-phenyl)-amide] |  | < 4.38 |
| O=C(Nc1ccc(N2CCCC2)cc1)N1CCC(c2ncnc3cc(OCCN4CCC[C@H]4CO)ccc23)CC1 [Compound 152, (S)-4-{7-[2-(2-Hydroxymethyl-pyrrolidin-1-yl)-ethoxy]-quinazolin-4-yl}-piperidine-1-carboxylic acid (4-pyrrolidin-1-yl-phenyl)-amide] |  | 4.48 |
| COc1cc2ncnc(C3CCN(C(=O)Nc4ccc(CO)cc4)CC3)c2cc1OC [Compound 22, 4-(6,7-Dimethoxy-quinazolin-4-yl)-piperidine-1-carboxylic acid (4-hydroxymethyl-phenyl)-amide] |  | 4.75 |
| O=C1CCCN1CCOc1ccc2c(C3CCN(C(=O)Nc4ccc(N5CCOCC5)nc4)CC3)ncnc2c1 [Compound 83, 4-{7-[2-(2-Oxo-pyrrolidin-1-yl)-ethoxy]-quinazolin-4-yl}-piperidine-1-carboxylic acid (6-morpholin-4-yl-pyridin-3-yl)-amide] | 7.60 | 5.07 |
| O=C(Nc1ccc(N2CCOCC2)cc1)N1CCC(c2ncnc3cc(N4CC[C@H](O)C4)ccc23)CC1 [Compound 128, 4-[7-(3-Hydroxy-pyrrolidin-1-yl)-quinazolin-4-yl]-piperidine-1-carboxylic acid (4-morpholin-4-yl-phenyl)-amide] |  | < 4.70 |
| CN(C)CC(=O)N1CCN(c2ccc3c(C4CCN(C(=O)Nc5ccc(N6CCOCC6)cc5)CC4)ncnc3c2)CC1 [Compound 144, 4-{7-[4-(2-Dimethylamino-acetyl)-piperazin-1-yl]-quinazolin-4-yl}-piperidine-1-carboxylic acid (4-morpholin-4-yl-phenyl)-amide] |  | 4.85 |
| O=C1CCCN1CCCOc1ccc2c(C3CCN(C(=O)Nc4ccc(N5CCOCC5)cc4)CC3)ncnc2c1 [Compound 68, 4-{7-[3-(2-Oxo-pyrrolidin-1-yl)-propoxy]-quinazolin-4-yl}-piperidine-1-carboxylic acid (4-morpholin-4-yl-phenyl)-amide] | 7.55 | < 4.70 |

Continued by rising pIC50 (TrkB), values first:

| pIC50 [1] | pIC50 (TrkB) | Structure (SMILES) |
| --- | --- | --- |
|  | 5.19 | O=C(Nc1ccc(N2CCCC2)cc1)N1CCC(c2ncnc3cc(OCCCN4CCC[C@H]4CO)ccc23)CC1 [Compound 161, (S)-4-{7-[3-(2-Hydroxymethyl-pyrrolidin-1-yl)-propoxy]-quinazolin-4-yl}-piperidine-1-carboxylic acid (4-pyrrolidin-1-yl-phenyl)-amide] |
|  | 5.21 | COc1cc2ncnc(C3CCN(C(=O)Nc4ccc(N5CCCCC5)c(Cl)c4)CC3)c2cc1OC [Compound 71, 4-(6,7-Dimethoxy-quinazolin-4-yl)-piperidine-1-carboxylic acid (3-chloro-4-piperidin-1-yl-phenyl)-amide] |
| 7.89 | 5.57 | O=C1CCCN1CCCOc1ccc2c(C3CCN(C(=O)Nc4ccc(N5CCCC5)nc4)CC3)ncnc2c1 [Compound 89, 4-{7-[3-(2-Oxo-pyrrolidin-1-yl)-propoxy]-quinazolin-4-yl}-piperidine-1-carboxylic acid (6-pyrrolidin-1-yl-pyridin-3-yl)-amide] |
| 7.64 | 5.70 | O=C1CCCN1CCCOc1ccc2c(C3CCN(C(=O)Nc4ccc(N5CCOCC5)nc4)CC3)ncnc2c1 [Compound 72, 4-{7-[3-(2-Oxo-pyrrolidin-1-yl)-propoxy]-quinazolin-4-yl}-piperidine-1-carboxylic acid (6-morpholin-4-yl-pyridin-3-yl)-amide] |
|  | 5.96 | COc1cc2ncnc(C3CCN(C(=O)Nc4ccc(C(C)(C)C)cc4)CC3)c2cc1OC [Compound 53, 4-(6,7-Dimethoxy-quinazolin-4-yl)-piperidine-1-carboxylic acid (4-tert-butyl-phenyl)-amide] |
|  | 6.22 | COc1cc2ncnc(C3CCN(C(=O)Nc4ccc(C5CCCCC5)cc4)CC3)c2cc1OC [Compound 21, 4-(6,7-Dimethoxy-quinazolin-4-yl)-piperidine-1-carboxylic acid (4-cyclohexyl-phenyl)-amide] |
| 7.96 | 6.40 | CS(=O)(=O)NCCCOc1ccc2c(C3CCN(C(=O)Nc4ccc(OC5CCCC5)nc4)CC3)ncnc2c1 [Compound 88, 4-[7-(3-Methanesulfonylamino-propoxy)-quinazolin-4-yl]-piperidine-1-carboxylic acid (6-cyclopentyloxy-pyridin-3-yl)-amide] |
| 7.08 | 6.66 | COc1cc2ncnc(C3CCN(C(=O)Nc4ccc(OC(C)C)cc4)CC3)c2cc1OC [Compound 1, 4-(6,7-Dimethoxy-quinazolin-4-yl)-piperidine-1-carboxylic acid (4-isopropoxy-phenyl)-amide hydrochloride] |
|  | 7.00 | CC(C)Oc1ccc(NC(=O)N2CCC(c3ncnc4cc(OCCCN5CCOCC5)ccc34)CC2)cc1 [Compound 38] |
